The text below walks through data of BindingDB's records for doi:10.1021/jm00394a010 (University of Minnesota, 1987).

Where a SMILES comes first, the peptide text is derived from it. Side-chain parts run from the residue outwards. The star is where a group is joined. X1 = CN1CC[C@]23c4c5ccc(O)c4O[C@H]2[C@@H](N*)CC[C@@]3(O)C1C5

A short description of this test: Binding affinity of Opioid receptor delta 1 by the displacement of delta-selective [3H]DSLET from brain membrane preparations.
`CC(=O)NCC(=O)NCC(=O)N[C@H]1CC[C@@]2(O)C3Cc4ccc(O)c5c4[C@@]2(CCN3C)[C@H]1O5` [1N-[10,17-dihydroxy-4-methyl-(13R,17S)-12-oxa-4-azapentacyclo[9.6.1.01,13.05,17.07,18]octadeca-7(18),8,10-trien-14-ylcarbamoylmethyl]-2-methylcarboxamidoacetamide] had a Ki of 181 nM.

Consider `CC(C)C[C@H](NC(=O)[C@H](Cc1ccccc1)NC(=O)CNC(=O)[C@H](CCC(=O)NCC(=O)NCC(N)=O)NC(=O)[C@@H](N)Cc1ccc(O)cc1)C(=O)O` (H-YE([Gly-Gly-NH2])GFL-OH), for which the Ki turned out to be 88 nM.

`CC(=O)N[C@H]1CC[C@@]2(O)C3Cc4ccc(O)c5c4[C@@]2(CCN3C)[C@H]1O5` [N-[(1S,13R,14S,17S)-10,17-dihydroxy-4-methyl-12-oxa-4-azapentacyclo[9.6.1.0^{1,13}.0^{5,17}.0^{7,18}]octadeca-7(18),8,10-trien-14-yl]acetamide] gave a Ki of 163 nM.

Take `CC(C)C[C@H](NC(=O)[C@H](Cc1ccccc1)NC(=O)CNC(=O)[C@H](CCC(=O)N[C@H]1CC[C@@]2(O)C3Cc4ccc(O)c5c4[C@@]2(CCN3C)[C@H]1O5)NC(=O)[C@@H](N)Cc1ccc(O)cc1)C(=O)O` [oxymorphamine- and enkephalin-containing ligand 1] (H-YE(X1)GFL-OH): the affinity corresponds to a Ki of 26 nM.

In the case of H-YQGFL-OH, the Ki is 47 nM. This Ki lies about 1.8-fold higher than the previous one.

`CC(C)C[C@H](NC(=O)[C@H](Cc1ccccc1)NC(=O)CNC(=O)[C@H](CCC(=O)NCC(=O)NCC(=O)N[C@H]1CC[C@@]2(O)C3Cc4ccc(O)c5c4[C@@]2(CCN3C)[C@H]1O5)NC(=O)[C@@H](N)Cc1ccc(O)cc1)C(=O)O` [oxymorphamine- and enkephalin-containing ligand 2] (H-YE([Gly-Gly-X1])GFL-OH) came in with a Ki of 51 nM.

What is called Ki is the equilibrium dissociation constant of an inhibitor or competing ligand from its target. Read a high Ki as weaker binding.
